From PubChem BioAssay AID2060493 (Molecular Pharmacology Branch, DTP, NCI, 2025)
Where “and” joins values, the source holds several entries; their conditions need not be identical. Identical values can stand only once. Each block holds one compound with its values, some of them ahead of it.

Test system: 616215-338-R-J1-PDC tumor spheroids, viability
Assay: Anticancer human tumor 616215-338-R-J1-PDC patient-derived colon adenocarcinoma cell line growth inhibition [GQUAD]
Conditions: spheroids with HUVEC and MSC; for viability, T/C: stronger effect = lower value
Excerpt: DNA G-quadruplex Stabilizer Agents in Combinations in Complex Spheroids
A high-throughput screen of multi-cell type tumor spheroids was designed to identify active combinations of DNA G-quadruplex stabilizer agents and targeted small molecules. Complex spheroids include a stromal component modeled by human endothelial cells (HUVEC) and fibroblasts modeled by human mesenchymal stem cells (MSCs). The concentration ranges selected for each drug and investigational agent were based upon clinically achievable concentrations if the clinical Cmax of the agent was known.
Compounds. The drugs and investigational agents: pidnarulex (CX-5461; NSC782164), APTO-253 (NSC789042), BRACO-19 (NSC847499), peposertib (NSC802822), ceralasertib (NSC780249), elimusertib (NSC800525), camonsertib (NSC841442), AZD-1390 (NSC803789), olaparib (NSC753686), talazoparib (NSC767125), ART-558 (NSC835418), sotorasib (NSC818433), MRTX-1133 (NSC836407), SN-38 (NSC673596), topotecan (NSC609699), etoposide (NSC141540), doxorubicin (NSC123127), gemcitabine (NSC613327), 5-fluorouracil (NSC19893), paclitaxel (NSC125973), vemurafenib (NSC761431), panobinostat (NSC761190), R-306465 (JNJ-16241199; NSC773264), adavosertib (NSC754352), TP-3654 (NSC805149), carboplatin (NSC241240), KSQ-4279 (NSC840948), and staurosporine (NSC755774) were obtained from the National Cancer Institute (NCI) Developmental Therapeutics Program Chemical Repository (34). The FDA-approved anticancer drug set is available from the NCI Developmental Therapeutics Program. […] The stock solutions were prepared in dimethyl sulfoxide (DMSO, Sigma-Aldrich, St. Louis, MO, cat. D2650) at 800-fold the tested concentration and stored at -70 degrees C prior to their use. All drugs and investigational agents were tested over a range starting from a high concentration at or near the clinical Cmax and decreasing in half-log increments. If the clinical Cmax for an agent had not been determined, the highest concentration tested was 10 microM.
2.3 Cell Culture. All cells were maintained in an incubator at 37 degrees C and 5% CO2 with 95% humidity. The PDC lines were cultured according to standard operating procedures established by the NCI PDMR. All PDCs were thawed and cultured in Matrigel-coated flasks prepared with a working solution of 1X Ham's F-12 nutrient mix, without supplementation (Invitrogen, cat. 11765054), 100 U/mL penicillin-streptomycin (Invitrogen, cat. 15140122), and 2.5% Matrigel (Corning Inc., cat. 354248) for the first three passages. The 857933-349-R-J2-PDC line was cultured in 6C/Colon 1B media, which includes advanced DMEM/F-12 (Thermo Fisher Scientific, cat. 12634028), 10 mM HEPES (Thermo Fisher Scientific, cat. 15630080), 1X GlutaMAX supplement (Thermo Fisher Scientific, cat. 35050061), 0.1 mg/mL primocin (InvivoGen, cat. ant-pm-2), 10% defined fetal bovine serum, heat inactivated (HyClone Laboratories Inc., cat. SH30070.03HI), 50% L-WRN conditioned media (ATCC, cat. CRL-3276), 1.25 mM N-Acetyl-L-cysteine (Sigma-Aldrich, cat. A9165), 10 mM nicotinamide (Sigma-Aldrich, cat. N0636), 1X B-27 supplement (Thermo Fisher Scientific, cat. 17504044), 1X N-2 supplement (Thermo Fisher Scientific, cat. 17502048), 10 microM Y-27632 dihydrochloride (Tocris Bioscience, cat. 1254), and 50 ng/mL human EGF recombinant protein (Thermo Fisher Scientific, cat. PHG0311). The 485176-168-R4-J1-PDC line was cultured in Panc media, which includes all 6C/Colon 1B media components plus 100 ng/mL human FGF-10 (Thermo Fisher Scientific, cat. 100-26), 500 nM SB-431542 (Selleckchem, cat. S1067), and gastrin (Tocris, cat. 3006).
[…]

[1] = curve of first compound, second compound 0.0316 µM
[2] = curve of first compound, second compound 0.1 µM
[3] = curve of first compound, second compound 0.316 µM
[4] = curve of first compound, second compound 1 µM
[5] = curve of first compound, second compound 3.16 µM
[6] = curve of first compound, second compound 10 µM
[7] = second compound 0.0316 µM, first compound 0.0316 µM
[8] = second compound 0.0316 µM, first compound 0.1 µM
[9] = second compound 0.0316 µM, first compound 0.316 µM
[10] = second compound 0.0316 µM, first compound 1 µM
[11] = second compound 0.0316 µM, first compound 3.16 µM
[12] = second compound 0.0316 µM, first compound 10 µM
[13] = second compound 0.1 µM, first compound 0.0316 µM
[14] = second compound 0.1 µM, first compound 0.1 µM
[15] = second compound 0.1 µM, first compound 0.316 µM
[16] = second compound 0.1 µM, first compound 1 µM
[17] = second compound 0.1 µM, first compound 3.16 µM
[18] = second compound 0.1 µM, first compound 10 µM
[19] = second compound 0.316 µM, first compound 0.0316 µM
[20] = second compound 0.316 µM, first compound 0.1 µM
[21] = second compound 0.316 µM, first compound 0.316 µM
[22] = second compound 0.316 µM, first compound 1 µM
[23] = second compound 0.316 µM, first compound 3.16 µM
[24] = second compound 0.316 µM, first compound 10 µM
[25] = second compound 1 µM, first compound 0.0316 µM
[26] = second compound 1 µM, first compound 0.1 µM
[27] = second compound 1 µM, first compound 0.316 µM
[28] = second compound 1 µM, first compound 1 µM
[29] = second compound 1 µM, first compound 3.16 µM
[30] = second compound 1 µM, first compound 10 µM
[31] = second compound 3.16 µM, first compound 0.0316 µM
[32] = second compound 3.16 µM, first compound 0.1 µM
[33] = second compound 3.16 µM, first compound 0.316 µM
[34] = second compound 3.16 µM, first compound 1 µM
[35] = second compound 3.16 µM, first compound 3.16 µM
[36] = second compound 3.16 µM, first compound 10 µM
[37] = second compound 10 µM, first compound 0.0316 µM
[38] = second compound 10 µM, first compound 0.1 µM
[39] = second compound 10 µM, first compound 0.316 µM
[40] = second compound 10 µM, first compound 1 µM
[41] = second compound 10 µM, first compound 3.16 µM
[42] = second compound 10 µM, first compound 10 µM
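Also: spheroids exposed to agents for 7 days before readout.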
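For viability, T/C in this document: percent viability relative to DMSO vehicle control wells taken as 100%.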

Structure (SMILES): CC1COCCN1c1cc(-c2ccnn2C)c2ccnc(-c3ccn[nH]3)c2n1 (configuration not stated) + CN(C)c1ccc(Nc2c3ccc(NC(=O)CCN4CCCC4)cc3nc3cc(NC(=O)CCN4CCCC4)ccc23)cc1
IC50 [1]: 157 nM | IC50 [2]: 147 nM | IC50 [3]: 164 nM | IC50 [4]: 142 nM | IC50 [5]: 129 nM | IC50 [6]: 129 nM | viability, T/C [7]: 99.1% | viability, T/C [8]: 61.8% | viability, T/C [9]: 31.1% | viability, T/C [10]: 25.6% | viability, T/C [11]: 18.4% | viability, T/C [12]: 21.6% | viability, T/C [13]: 94.4% | viability, T/C [14]: 58.5% | viability, T/C [15]: 33.5% | viability, T/C [16]: 21.2% | viability, T/C [17]: 21.6% | viability, T/C [18]: 22.4% | viability, T/C [19]: 93% | viability, T/C [20]: 65.4% | viability, T/C [21]: 29.1% | viability, T/C [22]: 23.1% | viability, T/C [23]: 20.7% | viability, T/C [24]: 18.6% | viability, T/C [25]: 90.1% | viability, T/C [26]: 55.5% | viability, T/C [27]: 38.1% | viability, T/C [28]: 22.6% | viability, T/C [29]: 18.8% | viability, T/C [30]: 25.7% | viability, T/C [31]: 91.7% | viability, T/C [32]: 55.6% | viability, T/C [33]: 30.2% | viability, T/C [34]: 23.8% | viability, T/C [35]: 22.2% | viability, T/C [36]: 16.7% | viability, T/C [37]: 88.4% | viability, T/C [38]: 53.8% | viability, T/C [39]: 35.8% | viability, T/C [40]: 24.2% | viability, T/C [41]: 19.7% | viability, T/C [42]: 18.5%

Structure (SMILES): Cc1cccc(N(C)C(=O)C2C(O)CCN2c2nc(C)cc(C(F)(F)F)c2C#N)c1 (configuration not stated) + Cc1[nH]c2ccc(F)cc2c1-c1nc2c3cccnc3c3ncccc3c2[nH]1
IC50 [1]: > 10000 nM | IC50 [2]: > 10000 nM | IC50 [3]: > 10000 nM | IC50 [4]: > 10000 nM | IC50 [5]: > 10000 nM | IC50 [6]: > 10000 nM | viability, T/C [7]: 92.8% | viability, T/C [8]: 102% | viability, T/C [9]: 93.7% | viability, T/C [10]: 87.6% | viability, T/C [11]: 101% | viability, T/C [12]: 104% | viability, T/C [13]: 99.4% | viability, T/C [14]: 93.8% | viability, T/C [15]: 99.1% | viability, T/C [16]: 104% | viability, T/C [17]: 99.6% | viability, T/C [18]: 95.5% | viability, T/C [19]: 91% | viability, T/C [20]: 92.1% | viability, T/C [21]: 99.4% | viability, T/C [22]: 100% | viability, T/C [23]: 97.6% | viability, T/C [24]: 96.6% | viability, T/C [25]: 103% | viability, T/C [26]: 92% | viability, T/C [27]: 96.7% | viability, T/C [28]: 93.9% | viability, T/C [29]: 105% | viability, T/C [30]: 103% | viability, T/C [31]: 94.4% | viability, T/C [32]: 87% | viability, T/C [33]: 96.5% | viability, T/C [34]: 91.6% | viability, T/C [35]: 104% | viability, T/C [36]: 107% | viability, T/C [37]: 108% | viability, T/C [38]: 94.4% | viability, T/C [39]: 96.2% | viability, T/C [40]: 88% | viability, T/C [41]: 107% | viability, T/C [42]: 86.5%

Structure (SMILES): Nc1ccn(C2OC(CO)C(O)C2(F)F)c(=O)n1 (configuration not stated)
viability, T/C (compound 0.0316 µM): 53.3% and 42.5% and 53% | viability, T/C (compound 0.1 µM): 21.3% and 23.8% and 25.2% | viability, T/C (compound 0.316 µM): 16.9% and 9.13% and 18.7% | viability, T/C (compound 1 µM): 17.8% and 10.8% and 15.7% | viability, T/C (compound 3.16 µM): 14% and 12.8% and 17.5% | viability, T/C (compound 10 µM): 17.1% and 11.2% and 17.3% | IC50 (curve of compound): 35.6 nM and < 31.6 nM and 35.8 nM

The next lines start with results.

IC50 (curve of compound): 749 nM and 1560 nM and 781 nM
Structure (SMILES): COc1cc(C2c3cc4c(cc3C(OC3OC5COC(C)OC5C(O)C3O)C3COC(=O)C23)OCO4)cc(OC)c1O (configuration not stated)
viability, T/C (compound 0.0316 µM): 106% and 97.9% and 101% | viability, T/C (compound 0.1 µM): 93% and 95.6% and 92.9% | viability, T/C (compound 0.316 µM): 72.8% (2×) and 63.2% | viability, T/C (compound 1 µM): 41.4% and 57.3% and 43.4% | viability, T/C (compound 3.16 µM): 29.8% and 39.9% and 37.9% | viability, T/C (compound 10 µM): 24.3% and 21.6% and 20%

IC50 (curve of compound): < 31.6 nM
Structure (SMILES): CC(=O)O[C@H]1C(=O)[C@@]2(C)[C@H]([C@H](OC(=O)c3ccccc3)[C@]3(O)C[C@H](OC(=O)[C@H](O)[C@@H](NC(=O)c4ccccc4)c4ccccc4)C(C)=C1C3(C)C)[C@]1(OC(C)=O)CO[C@@H]1C[C@@H]2O
viability, T/C (compound 0.0316 µM): 18.6% and 23.3% and 49.7% | viability, T/C (compound 0.1 µM): 15.1% and 16.7% and 22.2% | viability, T/C (compound 0.316 µM): 14.9% and 20% and 21.1% | viability, T/C (compound 1 µM): 18% and 14.6% and 17.4% | viability, T/C (compound 3.16 µM): 13.8% and 14.9% and 15.3% | viability, T/C (compound 10 µM): 13.3% and 15.2% and 14.8%

IC50 (curve of compound): 339 nM and 331 nM and 380 nM
Structure (SMILES): O=C(NO)c1cnc(N2CCN(S(=O)(=O)c3ccc4ccccc4c3)CC2)nc1
viability, T/C (compound 0.0316 µM): 101% and 114% and 112% | viability, T/C (compound 0.1 µM): 96.7% and 102% and 94.6% | viability, T/C (compound 0.316 µM): 53.2% (2×) and 60.8% | viability, T/C (compound 1 µM): 1.44% and 0.67% and 2.74% | viability, T/C (compound 3.16 µM): 0.23% and 0.21% and 0.06% | viability, T/C (compound 10 µM): 0.22% and 0.09%
